We go through eleven compounds from US10954188B2, “Isotope-enriched 3-amino-1-propanesulfonic acid derivatives and uses thereof” (RISEN (SUZHOU) PHARMA TECH CO., LTD., priority 2017, dated 2021).

Data set [1] in a line: Compound stability in whole mouse blood. Format: in vitro ADME. Particulars: fresh mouse blood, initial concentration 1.44 μM, 37° C., test (parent) compound at 4 h. The protocol: Compounds were also evaluated for stability in whole mouse blood. A sample of test compound in fresh mouse blood (at a concentration of 1.44 μM) was incubated at 37° C. for 4 h. An aliquot of the sample was withdrawn, at time 5 min. and time 4 h, for concentration analysis on a LC-MS/MS instrument after converting the blood sample to an analytical sample employing standard sample preparation procedures. The detailed recovery of the compound was not fully evaluated and optimized. The sample was analyzed for the parent compound and the therapeutic compound.

Data set [2] in a line: Pharmacokinetic study in C57Bl6 mice. Format: in vivo. More on the design: AUC(0-t): concentration or dose not given beside the values. To be noted: mouse, oral gavage, plasma, prodrug; for AUC(0-t): read-out: Prodrug AUCt; for half-life: read-out: Prodrug T1/2 (converted). The protocol: (§1) Forty-two male ICR mice, body-weight of 19 to 21 g, are randomized into 7 groups. The animals are administered with an aqueous solution of a test compound by oral gavage. Blood samples are collected into tubes pre-loaded with heparin anticoagulating agent, at time 0.167, 0.5, 1, 2, 4, 8, and 12 h after administration. Blood samples are centrifuged, and plasma samples are isolated for analysis of the test compound (including compounds administered, metabolites, and/or prodrugs). A 400 μL blood sample is collected from each animal, and then the animal is put to sleep with barbiturate anesthesia; perfusion is performed (through the main vein of the heart) with saline at a rate of 5 mL/min., for 6 min. The brain is collected and kept at −40° C. until the sample is analyzed. The protein in the plasma is precipitated and the analytical sample is analyzed on an AB4000-Q-Trap UPLC-MS/MS instrument.
Pharmacokinetic studies were performed in C57B16 mice. The experiments were done using the same protocol described in Example 20. For each compound, 42 animals were used (6 animals per time point, and 7 time points distributed at 10 min, 0.5, 1, 2, 4, 8 and 12 h).

The nature of data set [3]: Pharmacokinetic study in ICR mice, oral (FIGS. 1 and 2). To be noted: for concentration of metabolite (2-carboxy-1-ethanesulfonic acid) in plasma compared to 3APS (of natural abundance): 0.72 mmol/kg, 2 h; for drug metabolism compared to 3APS (of natural abundance) / plasma drug exposure compared to 3APS (of natural abundance): mole-equivalent dose (0.72 mmol/kg). The format is in vivo. The protocol: A compound according to the invention is dissolved in water at a concentration determined by the desired dose and dosing volume for the specific animal to which the compound is to be administered. A calculated volume of dosing solution is administered to the animal (PO, SQ, IP, or IV). A blood sample is collected following administration of the compound at specific time points (such as 10 min., 30 min., 1 h, 2 h, 4 h, 8 h, and 12 h). The blood sample is converted to a plasma sample using standard techniques. A brain sample can also be collected after complete perfusion. The plasma and/or brain samples are analyzed to determine the concentration of relevant compounds (including e.g., administered compounds, therapeutic compounds (e.g., drugs) and metabolites).
as §1

A short description of data set [4]: Compound stability in simulated gastric fluid (SGF). The format is in vitro ADME. To be noted: 400 μg/mL, 37° C., percentage of initial concentration, LC-MS/MS. The protocol:
Compounds were evaluated for stability in simulated gastric fluid (SGF). A solution of a compound in SGF (400 μg/mL) was incubated at 37° C. for 4 h. An aliquot of the sample was withdrawn, at time 0 and time 4 h, for concentration analysis on a LC-MS/MS instrument. The initial concentration (at time 0) of a compound was considered as 1, and the remaining concentration of the compound at 4-h time point was calculated and expressed as the percentage of the initial concentration.

“Also recorded” adds a separate entry of the source. Structures can show the parent of a compound that is named as a salt.

For `[2H]C([2H])(CCS(=O)(=O)O)NC(=[18O])[C@@H](N)C(C)C` [Compound 29, 3-((^18O-L-valyl)amino)-3,3-dideuterium-1-propanesulfonic acid], the “Compound conc. (μM) at 4 h” value in data set [1] amounted to 0.80 µM.

As usually defined, the Cmax is the peak of the concentration-time curve. With `[2H]C([2H])(CCS(=O)(=O)O)NC(=O)[C@@H](N)CO` [Compound 3, 3-(L-serylamino)-3,3,-dideuterium-1-propanesulfonic acid], in data set [2], the Cmax stood at 22300 ng/mL, the AUC(0-t) was 44700 ng·h/mL and the half-life was 1.9 h.

For `[2H]C([2H])(CCS(=O)(=O)O)NC(=O)[C@@H](N)C(C)C` [Compound 4, 3-((L-valyl)amino)-3,3-dideuterium-1-propanesulfonic acid], in data set [2], the Cmax amounted to 39500 ng/mL, the AUC(0-t) was found to be 38000 ng·h/mL and the half-life is 1.5 h. In data set [3], the “concentration of metabolite (2-carboxy-1-ethanesulfonic acid) in plasma compared to 3APS (of natural abundance)” value is “much lower”, the “drug metabolism compared to 3APS (of natural abundance)” value is “delayed drug metabolism” and the “plasma drug exposure compared to 3APS (of natural abundance)” value was “improved plasma drug exposure significantly; also recorded: even greater improvement of drug exposure”. In data set [3] (plasma), the “conversion of prodrug to compound 1 in the subject” value was “converted easily to 1”. In addition, in data set [4], the “Remaining (%) at 4 h” value is recorded as 107%. The “Compound conc. (μM) at 4 h” value in data set [1] turned out to be 0.74 µM.

In the case of `CC(C)[C@H](N)C(=[18O])NCCCS(=O)(=O)O` [Compound 15, 3-((^18O-L-valyl)amino)-1-propanesulfonic acid], in data set [4], the “Remaining (%) at 4 h” value is recorded as 104%. For the same compound, the “Compound conc. (μM) at 4 h” value in data set [1] stood at 0.78 µM.

In the case of `N[C@@H](Cc1ccccc1)C(=[18O])NCCCS(=O)(=O)O` [Compound 16], in data set [2], the Cmax came out at 3840 ng/mL, the AUC(0-t) amounted to 11900 ng·h/mL and the half-life is 1.5 h. In addition, the “Remaining (%) at 4 h” value in data set [4] is recorded as 96%. Moreover, the “Compound conc. (μM) at 4 h” value in data set [1] was found to be 0.74 µM.

On to `[2H]C([2H])(CCS(=O)(=O)O)NC(=O)[C@@H](N)Cc1ccccc1` [Compound 5, 3-((L-phenylalanyl)amino)-3,3-dideuterium-1-propanesulfonic acid], for which, in data set [2], the highest concentration (Cmax) was 1090 ng/mL, the AUC(0-t) amounted to 782 ng·h/mL and the half-life was 0.4 h. Besides, the “Remaining (%) at 4 h” value in data set [4] is recorded as 99%. In data set [1], the “Compound conc. (μM) at 4 h” value was determined as 0.03 µM.

For `[2H]C([2H])(CCS(=O)(=O)O)NC(=O)[C@@H](N)Cc1c[nH]cn1` [Compound 6, 3-((L-histidyl)amino)-3,3-dideuterium-1-propanesulfonic acid hydrochloride], in data set [2], the highest concentration (Cmax) was found to be 9920 ng/mL, the AUC(0-t) was 16600 ng·h/mL and the half-life is 1.4 h.

As to `C[C@H](N)C(=[18O])NCCCS(=O)(=O)O` [Compound 13, 3-((^18O-L-alanyl)amino)-1-propanesulfonic acid], in data set [2], the Cmax was 672 ng/mL, the AUC(0-t) turned out to be 1830 ng·h/mL and the half-life is 0.5 h.

On to `N[C@@H](Cc1c[nH]cn1)C(=[18O])NCCCS(=O)(=O)O` [Compound 17, 3-((^18O-L-histidyl)amino)-1-propanesulfonic acid hydrobromide], for which, in data set [2], the highest concentration (Cmax) came to 19000 ng/mL, the AUC(0-t) came out at 14200 ng·h/mL and the half-life was 1.1 h. The “Remaining (%) at 4 h” value in data set [4] is 101%. In data set [1], the “Compound conc. (μM) at 4 h” value was 1.20 µM.

With `[2H]C([2H])(N)CCS(=O)(=O)O` [Compound 1, 3-amino-3,3-dideuterium-1-propanesulfonic acid], in data set [3], the “concentration of metabolite (2-carboxy-1-ethanesulfonic acid) in plasma compared to 3APS (of natural abundance)” value was “much lower”, the “drug metabolism compared to 3APS (of natural abundance)” value was “delayed drug metabolism; also recorded: delayed metabolic profile” and the “plasma drug exposure compared to 3APS (of natural abundance)” value was “improved plasma drug exposure significantly”. Further, the “Remaining (%) at 4 h” value in data set [4] is recorded as “(100) %”. Further, the “Compound conc. (μM) at 4 h” value in data set [1] stood at 0.98 µM.

Regarding `[2H]C([2H])(CCS(=O)(=O)O)NC(=O)[C@H](C)N` [Compound 2, 3-((L-alanyl)amino)-3,3-dideuterium-1-propanesulfonic acid], in data set [2], the Cmax came to 472 ng/mL, the AUC(0-t) came out at 348 ng·h/mL and the half-life was 0.6 h. Further, in data set [1], the “Compound conc. (μM) at 4 h” value was found to be 0.18 µM.
